From patent publication US11541055B2, “Inhibitors of human immunodeficiency virus replication” (ViiV Healthcare UK (No. 5) LIMITED, priority 2018, dated 2023)
Where two headings read alike, the source gives them in different places.

Columns and labels:
Type in all cases: cell-based
[1] = tested on: uninfected MT2 cells; experiment: Compound cytotoxicity, XTT-based colorimetric assay; settings: day 4, XTT
How it was run: (§1)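 Run under the antiviral-assay protocol but without virus. Viability was read on day 4 and CC50 values were derived from the readout.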

[2] = tested on: recombinant NL4-3 virus (Renilla luciferase) in MT-2 cells; experiment: HIV cell culture assay (antiviral activity, luciferase readout)
How it was run: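 Antiviral EC50 was derived via the median effect equation from luciferase signal. The signal came from MT-2 cultures infected for 4–5 days with a nef-deleted, Renilla luciferase-expressing NL4-3 reporter virus (made in 293T cells) in the presence of compound dilutions.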

[3] = Compound cytotoxicity, XTT-based colorimetric assay; settings: human; uninfected MT2 cells, day 4, XTT
How it was run: as §1

Row | SMILES | CC50 [1] [nM] | EC50 ([2]; MT-2 cells infected for 4-5 days with recombinant NL4-3 Renilla luciferase virus, luciferase activity, read-out: EC50) [nM] | CC50 at 4 days [3] [nM] | EC50 ([2]; Renilla, NL43) [nM]
1 | CC(C)(C)S(=O)(=O)c1cccc(-c2ccc3c(=O)n(-c4ccc(Cl)c5c(NS(=O)(=O)C6CC6)nn(CC(F)F)c45)c([C@H](Cc4cc(F)cc(F)c4)NC(=O)Cn4nc(C(F)F)c5c4C(F)(F)[C@@H]4C[C@H]54)nc3c2)c1 [Example 146, N-[(1S)-1-{3-[4-chloro-3-cyclopropanesulfonamido-1-(2,2-difluoroethyl)-1H-indazol-7-yl]-7-[3-(2-methylpropane-2-sulfonyl)phenyl]-4-oxo-3,4-dihydroquinazolin-2-yl}-2-(3,5-difluorophenyl)ethyl]-2-[(2S,4R)-9-(difluoromethyl)-5,5-difluoro-7,8-diazatricyclo[4.3.0.0^2,^4]nona-1(6),8-dien-7-yl]acetamide] | > 500 | 0.39 |  | 
2 | Cn1nc(NS(C)(=O)=O)c2c(Cl)ccc(-n3c([C@H](Cc4cc(F)cc(F)c4)NC(=O)Cn4nc(C(F)F)c5c4C(F)(F)[C@@H]4C[C@H]54)nc4cc(-c5cccc(C(F)F)c5)ccc4c3=O)c21 (atropisomer, axis not shown) [Example 120] |  |  | > 500 | 0.38
3 | Cn1nc(NS(C)(=O)=O)c2c(Cl)ccc(-n3c([C@H](Cc4cc(F)cc(F)c4)NC(=O)Cn4nc(C(F)F)c5c4C(F)(F)[C@@H]4C[C@H]54)nc4cc(-c5cccc(S(=O)(=O)C(C)(C)C)c5)ccc4c3=O)c21 (atropisomer, axis not shown; (P)) [Example 33, N—((S)-1-(7-(3-(tert-butylsulfonyl)phenyl)-(3P)-3-(4-chloro-1-methyl-3-(methylsulfonamido)-1H-indazol-7-yl)-4-oxo-3,4-dihydroquinazolin-2-yl)-2-(3,5-difluorophenyl)ethyl)-2-((3bS,4aR)-3-(difluoromethyl)-5,5-difluoro-3b,4,4a,5-tetrahydro-1H-cyclopropa[3,4]cyclopenta[1,2-c]pyrazol-1-yl)acetamide] |  |  | > 500 | 0.12
4 | Cc1nccc(-c2ccc3c(=O)n(-c4ccc(Cl)c5c(NS(C)(=O)=O)nn(CC(F)F)c45)c([C@H](Cc4cc(F)cc(F)c4)NC(=O)Cn4nc(C(F)F)c5c4C(F)(F)[C@@H]4C[C@H]54)nc3c2)n1 (atropisomer, axis not shown) [Example 121, N-[(1S)-1-{3-[4-chloro-1-(2,2-difluoroethyl)-3-methanesulfonamido-1H-indazol-7-yl]-7-(2-methylpyrimidin-4-yl)-4-oxo-3,4-dihydroquinazolin-2-yl}-2-(3,5-difluorophenyl)ethyl]-2-[(2S,4R)-9-(difluoromethyl)-5,5-difluoro-7,8-diazatricyclo[4.3.0.0^2,^4]nona-1(6),8-dien-7-yl]acetamide] |  |  | > 500 | 0.067
5 | Cn1nc(NS(C)(=O)=O)c2c(Cl)ccc(-n3c([C@H](Cc4cc(F)cc(F)c4)NC(=O)Cn4nc(C(F)F)c5c4C(F)(F)[C@@H]4C[C@H]54)nc4cc(-c5cccc(C(C)(C)C)n5)ccc4c3=O)c21 (atropisomer, axis not shown; (P)) [Example 35, N—((S)-1-(7-(6-(tert-butyl)pyridin-2-yl)-(3P)-3-(4-chloro-1-methyl-3-(methylsulfonamido)-1H-indazol-7-yl)-4-oxo-3,4-dihydroquinazolin-2-yl)-2-(3,5-difluorophenyl)ethyl)-2-((3bS,4aR)-3-(difluoromethyl)-5,5-difluoro-3b,4,4a,5-tetrahydro-1H-cyclopropa[3,4]cyclopenta[1,2-c]pyrazol-1-yl)acetamide] |  |  | > 500 | 0.97
6 | COc1ccc(-c2ccc3c(=O)n(-c4ccc(Cl)c5c(NS(C)(=O)=O)nn(CC(F)(F)F)c45)c([C@H](Cc4cc(F)cc(F)c4)NC(=O)Cn4nc(C(F)F)c5c4C(F)(F)[C@@H]4C[C@H]54)nc3c2)nn1 (atropisomer, axis not shown) [Example 110, N-[(1S)-1-{3-[4-chloro-3-methanesulfonamido-1-(2,2,2-trifluoroethyl)-1H-indazol-7-yl]-7-(6-methoxypyridazin-3-yl)-4-oxo-3,4-dihydroquinazolin-2-yl}-2-(3,5-difluorophenyl)ethyl]-2-[(2S,4R)-9-(difluoromethyl)-5,5-difluoro-7,8-diazatricyclo[4.3.0.0^2,^4]nona-1(6),8-dien-7-yl]acetamide] |  |  | > 500 | 0.071
7 | Cc1cc(C)nc(-c2ccc3c(=O)n(-c4ccc(Cl)c5c(NS(C)(=O)=O)nn(CC(F)(F)F)c45)c([C@H](Cc4cc(F)cc(F)c4)NC(=O)Cn4nc(C(F)F)c5c4C(F)(F)[C@@H]4C[C@H]54)nc3c2)c1 (atropisomer, axis not shown) [Example 101, N-[(1S)-1-{3-[4-chloro-3-methanesulfonamido-1-(2,2,2-trifluoroethyl)-1H-indazol-7-yl]-7-(4,6-dimethylpyridin-2-yl)-4-oxo-3,4-dihydroquinazolin-2-yl}-2-(3,5-difluorophenyl)ethyl]-2-[(2S,4R)-9-(difluoromethyl)-5,5-difluoro-7,8-diazatricyclo[4.3.0.0^2,^4]nona-1(6),8-dien-7-yl]acetamide] |  |  | > 500 | 0.21
8 | Cn1nc(NS(C)(=O)=O)c2c(Cl)ccc(-n3c([C@H](Cc4cc(F)cc(F)c4)NC(=O)Cn4nc(C(F)F)c5c4C(F)(F)[C@@H]4C[C@H]54)nc4cc(-c5nccc(C(F)F)n5)ccc4c3=O)c21 (atropisomer, axis not shown; (P)) [Example 56, N—((S)-1-((3P)-3-(4-chloro-1-methyl-3-(methylsulfonamido)-1H-indazol-7-yl)-7-(4-(difluoromethyl)pyrimidin-2-yl)-4-oxo-3,4-dihydroquinazolin-2-yl)-2-(3,5-difluorophenyl)ethyl)-2-((3bS,4aR)-3-(difluoromethyl)-5,5-difluoro-3b,4,4a,5-tetrahydro-1H-cyclopropa[3,4]cyclopenta[1,2-c]pyrazol-1-yl)acetamide] |  |  | > 500 | 0.056
9 | Cn1nc(NS(C)(=O)=O)c2c(Cl)ccc(-n3c([C@H](Cc4cc(F)cc(F)c4)NC(=O)Cn4nc(C(F)F)c5c4C(F)(F)[C@@H]4C[C@H]54)nc4cc(-c5cccc(C(F)(F)F)n5)ccc4c3=O)c21 (atropisomer, axis not shown; (P)) [Example 59, N—((S)-1-((3P)-3-(4-chloro-1-methyl-3-(methylsulfonamido)-1H-indazol-7-yl)-4-oxo-7-(6-(trifluoromethyl)pyridin-2-yl)-3,4-dihydroquinazolin-2-yl)-2-(3,5-difluorophenyl)ethyl)-2-((3bS,4aR)-3-(difluoromethyl)-5,5-difluoro-3b,4,4a,5-tetrahydro-1H-cyclopropa[3,4]cyclopenta[1,2-c]pyrazol-1-yl)acetamide] |  |  | > 500 | 0.12
10 | Cn1nc(NS(C)(=O)=O)c2c(Cl)ccc(-n3c([C@H](Cc4cc(F)cc(F)c4)NC(=O)Cn4nc(C(F)F)c5c4C(F)(F)[C@@H]4C[C@H]54)nc4cc(-c5ccccc5C(F)(F)F)ccc4c3=O)c21 (atropisomer, axis not shown; (P)) [Example 24, N—((S)-1-((3P)-3-(4-chloro-1-methyl-3-(methylsulfonamido)-1H-indazol-7-yl)-4-oxo-7-(2-(trifluoromethyl)phenyl)-3,4-dihydroquinazolin-2-yl)-2-(3,5-difluorophenyl)ethyl)-2-((3bS,4aR)-3-(difluoromethyl)-5,5-difluoro-3b,4,4a,5-tetrahydro-1H-cyclopropa[3,4]cyclopenta[1,2-c]pyrazol-1-yl)acetamide] |  |  | > 500 | 0.84
